Where two headings read alike, the source gives them in different places.
Assays:
[1] = system: human cells, ovarian cancer cells, melanoma cells, cells infected with viruses, normal fibroblasts, normal bone marrow cells, leukemic cells and normal …; experiment: Inhibition of the action of the mixture of solasodine glycosides by free sugars and sugars bound to bovine serum albumin; format: cell-based; conditions: free sugar and bound to bovine serum albumin
[2] = in vitro; conditions: human, pha stimulated lymphocytes
Method: (§5) This was cultured for 48 hours and pulsed with tritiated thymidine for a further 24 hours. In the inhibition studies, the cell concentration was 8×10^5 /ml.
(§6) All cells were harvested by vacuum filtration by washing in 250 μl of each of phosphate buffered saline, 5% trichloroacetic acid, 1.0M NaCl and 95% ethanol and subjected to β-scintillatian counting. Similarly, peripheral human blood lymphocytes were isolated and cultured 2×10^5 lymphocytes in CO2 1640TCM 10% HIFCS. Lymphocytes were stimulated with 20 μg/ml PHA, Con A or PWM, and cultured for 48 hrs followed by a 24 hr pulse. […] Cell concentrations were 8×10^4 /well total volume 250 μl. The dpm of the experimental replicates were expressed as a percentage of the mean value of the controls, and the mean value of the experimental replicates calculated.

[3] = in vitro; conditions: human, con a stimulated lymphocytes
Method: as §5, §6

[4] = in vitro; conditions: human, pwm stimulated lymphocytes
Method: as §5, §6

[5] = system: unstimulated and stimulated lymphocytes; conditions: for cytotoxicity (words): unstimulated and stimulated lymphocytes
Method: as §5, §6

[6] = system: human fibroblasts; experiment: cells
Method: (§1) The inhibition of cell replication by steroid alkaloids is determined by the inhibition of the incorporation of ^3 H thymidine into DNA. Using this technique, it should be possible to monitor any preferential inhibition of uptake of ^3 H thymidine by cancer cells.
(§2) Cells were maintained as monolayers in RPM1-1640 tissue culture media (Grant Island Biological Co) buffered with N-2-hydroxy-ethylpiperazine-N-2-ethanesulphonic acid pH 7.5 and supplemented with 10% heat inactivated fetal calf serum (FCS): (i) a human ovarian cancer cell line (C180-135), (ii) HeLa cells, (iii) human fibroblasts, and (iv) as a cell suspension of lymphoblastoid cells (EBV transformed lymphocytes). Monolayers were trypsinized to form a cell suspension. […] Cell concentration was adjusted to 2×10^5 cells/ml, and 2×10^4 cells were added in replicates of 10 to the wells (1×10^5 /ml well) of HA microtitre plates (Millipore Corp., USA). The cells were preincubated at 37.5° C. for 7 hours prior to the addition of 50 μl of the cytotoxic drug followed by the addition of 50 μl 5 uCi/ml of ^3 H thymidine, in the same tissue culture media 21 hours later. Incubation was continued for a total of 24 hours, which includes the pre-incubation time.
(§3) Appropriate DMSO cytotoxicity studies were also conducted. Solasodine glycosides were supplied as a mixture (BEC), and as separate components, solamargine, solasonine, a mixture of di- and mono-glycosides and the aglycone solasodine. All cytotoxic drugs were further diluted with HIFCS/TCM before testing. 5×10^4 ovarian cancer cells (200 μl/chamber of a chamber of microscope slide (Lab Tek Miles Scientific) were used. Controls received 50 μl HIFCS/TCM and experimental chambers 50 μl of solasodine glycosides (BEC) 1.5-3.8 μM/L after 7 hrs preincubation, and incubated for a further 3 hrs. Similarly, the cells were treated with the aglycone solasodine 19.4-96.8 μM/L. The cells were fixed and examined by the Papanicolaou method.

[7] = system: lymphoblastoid cells (EBV transformed lymphocytes); experiment: cells
Method: as §1, §2, §3

[8] = system: HeLa cells; experiment: cells
Method: as §1, §2, §3

[9] = system: ovarian cancer cells; experiment: Inhibition of tritiated thymidine uptake, ovarian cancer cells
Method: as §1, §2, §3

[10] = in vitro; conditions: human, unstimulated lymphocytes
Method: as §5, §6

[11] = system: ovarian cancer cells, HeLa cells, lymphoblastoid cells, fibroblasts; experiment: Cytotoxicity / inhibition of tritiated thymidine uptake, cell types taken together; conditions: for inhibition of tritiated thymidine uptake / cytotoxicity (words): 11.3 μM/L, various cell types
Method: as §1, §2, §3

[12] = system: unstimulated lymphocytes; experiment: DMG cytotoxicity with carbohydrates, unstimulated lymphocytes; format: cell-based, human
Method: (§4) A mixture of solasodine glycosides (BEC), of which the active compound is solamargine and from which the aglycone solasodine is derived was prepared for use in cytotoxicity assays as determined by the uptake of tritiated thymidine. Inhibition studies were carried out with lactose, lactosyl-albumin, galactose or rhamnose (Sigma Chemical Co., USA). All experimental replicates were related to their own controls. Total volume of replicates was 250 μl (carbohydrates added in 50 μl tissue culture media+10% fetal calf serum), and the cell concentrations were 8×10^4 /ml.

[13] = system: Con A stimulated lymphocytes; experiment: DMG cytotoxicity with carbohydrates, Con A stimulated lymphocytes; format: cell-based, human
Method: as §4

[14] = system: Sarcoma 180; experiment: Survival of mice with Sarcoma 180, with and without rhamnose; format: in vivo
Method: Herston White mice with a body weight of approximately 30 g and aged 8-10 weeks served as recipients. Twelve mice were randomly chosen for each experimental group.
Sarcoma 180 tumour cells (5×10^5) were inoculated intraperitoneally into mice. This caused a mortality of 100% with a median survival time of 20 days in the control groups. A standard mixture of glycoalkaloids (BEC) was dissolved in dimethylsulfoxide at a concentration of 0.5 g BEC/100 ml dimethylsulfoxide. Similar solutions were made up but also contained 0.3125, 0.625 and 0.9375 g of rhamnose. These solutions were administered intraperitoneally in concentrations of 8 mg/kg animal weight for BEC (FIG. 9) without (-.tangle-solidup.-), and with 5 mg (-.quadrature.-), 10 mg (-.cndot.-) and 15 mg (-Δ-) rhamnose/kg animal weight. The first dose was given 0.5 hours after administration of the Sarcoma 180 tumour cells. The remaining three doses were given at daily intervals. Dimethylsulfoxide and rhamnose had no effect on Sarcoma 180 activity in the absence of BEC (-.smallcircle.-).

[15] = system: fibroblasts; experiment: Solamargine cytotoxicity in presence and absence of carbohydrates, fibroblasts; format: cell-based, human; conditions: fibroblasts
Method: as §4

[16] = system: HeLa cells; experiment: Solamargine cytotoxicity in presence and absence of carbohydrates, HeLa cells; format: cell-based, human; conditions: HeLa cells
Method: as §4

[17] = system: ovarian cancer cells; experiment: Solamargine cytotoxicity in presence and absence of carbohydrates, ovarian cancer cells; format: cell-based, human; conditions: ovarian cancer cells
Method: as §4

[18] = system: lymphoblastoid cells; experiment: Solamargine cytotoxicity in presence and absence of carbohydrates, lymphoblastoid cells; format: cell-based; conditions: lymphoblastoid cells
Method: as §4

[19] = 100 mg solasodine/kg; cited from earlier work
[20] = system: unstimulated lymphocytes; experiment: Inhibition of tritiated thymidine uptake, unstimulated lymphocytes; conditions: much higher concentrations; unstimulated lymphocytes (FIG. 8e)
Method: as §5, §6

[21] = system: ovarian cancer cells; experiment: Morphological examination of ovarian cancer cells (Papanicolaou); format: cell-based, human; conditions: 19.4-96.8 μM/L; FIG. 2A
Method: Appropriate DMSO cytotoxicity studies were also conducted.
A human ovarian cancer cell line (C180-135) was grown as mono layers and trypsinized to form a cell suspension. The cells were adjusted to a concentration of 1×10^5 /ml (viability ≥95%) and 200 μl placed in each of the eight chambers of microscope chamber slides (Lab Tek, Miles Scientific). After 21 hours preincubation at 37.5° C., 50 μl of supplemented tissue culture media were added to the control chambers. To the other chambers were added 50 μl of solasodine glycosides (BEC) to give final concentrations of 3, 4.8, 6.7, 7.7, 9.6, 11.1 and 15.3 μM/L. Similarly, to a separate chamber slide was added the aglycone solasodine (19.4-96.8 μM/L). The slides were incubated at 37.5° C. for a further 3 hours, and the cells fixed in 95% V/V alcohol and stained by the Papanicolaou method. Two other chamber slides were prepared in a similar manner, but the solasodine glycosides and the aglycone were added at a final concentration of 0.77, 1.5, 2.3, 3.1 and 3.8 μM/L after 7 hours preincubation, and they incubated for a further 17 hours.

CC(=O)N[C@H]1C(O)O[C@H](CO)[C@@H](O)[C@@H]1O (stereo partly shown) [NAc glucosamine]
inhibitory effect on the action of the mixture of solasodine glycosides [1]: inhibitory effects

CC(=O)N[C@@H]1[C@@H](O)[C@H](O)[C@@H](CO)O[C@@H]1O [NAc glucose]
inhibitory effect on the action of the mixture of solasodine glycosides [1]: inhibitory effects

CC(=O)N[C@@H]1C(O)O[C@H](CO)[C@@H](O)[C@@H]1O (stereo partly shown) [NAc mannosamine]
inhibitory effect on the action of the mixture of solasodine glycosides [1]: inhibitory effects

CC(=O)NC1C(O)OC(CO)C(O)C1O (stereo not shown) [NAc mannose]
inhibitory effect on the action of the mixture of solasodine glycosides [1]: inhibitory effects

C[C@@H]1CC[C@@]2(NC1)O[C@H]1C[C@H]3[C@@H]4CC=C5C[C@@H](O[C@@H]6O[C@H](CO)[C@H](O)[C@H](O[C@@H]7O[C@H](CO)[C@@H](O)[C@H](O)[C@H]7O)[C@H]6O[C@@H]6O[C@@H](C)[C@H](O)[C@@H](O)[C@H]6O)CC[C@]5(C)[C@H]4CC[C@]3(C)[C@H]1[C@@H]2C [Solasonine, solasonine]
viability at 11.3 µM [2]: 103 ± 5.7%
viability at 11.3 µM [3]: 97 ± 7%
viability at 11.3 µM [4]: 110 ± 3.8%
cytotoxicity (words) [5]: ineffective
cytotoxicity (words) ([5]; listed as solasonine): absence of any effect
viability at 11.3 µM ([6]; Homo sapiens, Fibroblast, read-out: Percentage Cell Survival): 96 ± 8.3%
viability at 11.3 µM ([7]; Homo sapiens, Lymphoblastoid cell, read-out: Percentage Cell Survival): 117 ± 8%
viability at 11.3 µM ([8]; Homo sapiens, HeLa, read-out: Percentage Cell Survival): 105 ± 9.5%
viability at 11.3 µM ([9]; Homo sapiens, read-out: Percentage Cell Survival): 93 ± 8%
viability at 11.3 µM [10]: 97 ± 11.8%
inhibition of tritiated thymidine uptake / cytotoxicity (words) [11]: ineffective
inhibition of tritiated thymidine uptake / cytotoxicity (words) ([11]; listed as solasonine): not cytotoxic

O=C[C@H](O)[C@@H](O)[C@H](O)[C@H](O)CO [glucose]
inhibitory effect on the action of the mixture of solasodine glycosides [1]: inhibitory effects
inhibition of the action of DMG [12]: do not inhibit DMG
inhibition of the action of DMG [13]: inhibit the action of DMG
effect on S180 activity in the absence of BEC [14]: no effects

OC[C@H]1O[C@@H](O[C@H]2[C@H](O)[C@@H](O)C(O)O[C@@H]2CO)[C@H](O)[C@@H](O)[C@H]1O (stereo partly shown) [lactose, reference compound]
inhibitory effect on the action of the mixture of solasodine glycosides [1]: inhibitory effects
inhibition of solamargine cytotoxicity [15]: completely inhibited
inhibition of solamargine cytotoxicity [16]: not inhibited
inhibition of solamargine cytotoxicity [17]: Partial inhibition
inhibition of solamargine cytotoxicity [18]: partial inhibition

O=C[C@@H](O)[C@@H](O)[C@H](O)[C@H](O)CO [mannose]
inhibitory effect on the action of the mixture of solasodine glycosides [1]: inhibitory effects

C[C@H]1CC[C@@H]2[C@@H](C)[C@H]3[C@H](C[C@H]4[C@@H]5CC=C6C[C@@H](O[C@@H]7O[C@H](CO)[C@H](O)[C@H](O[C@@H]8O[C@H](CO)[C@@H](O)[C@H](O)[C@H]8O)[C@H]7O[C@@H]7O[C@@H](C)[C@H](O)[C@@H](O)[C@H]7O)CC[C@]6(C)[C@H]5CC[C@]34C)N2C1 [solanine]
lysosomotropic/mitochondrial inhibition [11]: lack of lysosomotropic/mitochondrial inhibition

C[C@@H]1CC[C@@]2(NC1)O[C@H]1C[C@H]3[C@@H]4CC=C5C[C@@H](O)CC[C@]5(C)[C@H]4CC[C@]3(C)[C@H]1[C@@H]2C [solasodine]
deaths in mice [19]: does not produce any deaths
cytotoxic effect of aglycone [20]: substantial effect on unstimulated lymphocytes
cytotoxic effect of aglycone ([5]; equivalent concentrations of DMG): does not exert a cytotoxic effect
morphological effect on ovarian cancer cells [21]: did not have any observable effect
cytotoxic effect of aglycone ([9]; higher concentrations (FIG. 7)): increase in cytotoxicity
effectiveness against S180 ([14]; aglycone, 100 mg/kg): not effective
lysosomotropic/mitochondrial inhibition [11]: lack of lysosomotropic/mitochondrial inhibition
cytotoxic effect of aglycone ([11]; equivalent concentrations of solamargine (FIG. 6)): does not exert a cytotoxic effect

CC[C@]1(O)C[C@@H]2CN(CCc3c([nH]c4ccccc34)[C@@](C(=O)OC)(c3cc4c(cc3OC)N(C)[C@H]3[C@@](O)(C(=O)OC)[C@H](OC(C)=O)[C@]5(CC)C=CCN6CC[C@]43[C@@H]65)C2)C1 [vinblastine, reference compound]
CC50 [2]: 19.2 µM
CC50 [3]: 7.8 µM
CC50 [4]: 10.8 µM
TR50 (thymidine ratio relative to ovarian cancer cells) ([6]; FB / OvCa): 0.2
IC50 ([6]; Homo sapiens, Fibroblast, read-out: LD50 (dose to inhibit 50% tritiated thymidine uptake)): 1.9 µM
TR50 for fibroblasts/lymphoblastoid cells ([6]; fibroblasts/lymphoblastoid cells): 0.73
TR50 (thymidine ratio relative to ovarian cancer cells) ([7]; LCL / OvCa): 0.27
IC50 ([7]; human gammaherpesvirus 4, LCL, read-out: LD50 (dose to inhibit 50% tritiated thymidine uptake)): 2.6 µM
TR50 (thymidine ratio relative to ovarian cancer cells) ([8]; HeLa / OvCa): 0.28
IC50 ([8]; Homo sapiens, HeLa, read-out: LD50 (dose to inhibit 50% tritiated thymidine uptake)): 2.7 µM
IC50 ([9]; Homo sapiens, read-out: LD50 (dose to inhibit 50% tritiated thymidine uptake)): 9.5 µM
CC50 [10]: 11 µM
cytotoxicity to normal cells relative to cancer cells ([11]; normal versus cancer cells): equally or more cytotoxic to normal cells relative to cancer cells

galactose [reference compound]
inhibitory effect on the action of the mixture of solasodine glycosides [1]: inhibitory effects
inhibition of solamargine cytotoxicity [15]: completely inhibited
inhibition of solamargine cytotoxicity [16]: not inhibited
inhibition of solamargine cytotoxicity [17]: partial inhibition
inhibition of solamargine cytotoxicity [18]: partial inhibition

rhamnose
inhibition of solamargine cytotoxicity [15]: inhibition by rhamnose is also demonstrable
inhibition of the action of DMG [12]: do not inhibit DMG
inhibition of the action of DMG [13]: inhibit the action of DMG
effect on S180 activity in the absence of BEC [14]: no effects
inhibition of the efficacy of BEC ([14]; mice with S180): inhibits the efficacy of BEC

Reference: patent US5958770A, “Glycoalkaloids” (priority 1990, dated 1999)
